Results as given in patent US20060025566A1, “Macrocyclic modulators of the ghrelin receptor” (Tranzyme Pharma Inc., priority 2003, published 2006).
pEC50, pKi: −log10 of the molar value. Where two headings read alike, the source gives them in different places.

Experiments:
[1] = target: human ghrelin receptor (hGHS-R1a) (Homo sapiens, UniProt Q92847); assay: Aequorin functional assay (ghrelin receptor), CHO-K1 cells co-expressing Gα16 and aequorin; type: cell-based; settings: functional (agonist) activity, standard method; TFA salts unless otherwise noted
Source text: Coelenterazine (Molecular Probes, Leiden, The Netherlands). […] Compound Handling
• 1. […] Key Aspects of Method • 1. […] Results

[2] = target: T1, human growth hormone secretagogue receptor (hGHS-R1a) (Homo sapiens, UniProt Q92847); assay: Competitive radioligand binding assay (ghrelin receptor), [125I]-ghrelin displacement on GHS-R/HEK 293 membranes
T1 construct: purchased PerkinElmer BioSignal #RBHGHSM, lot#1887; host or cells: HEK-293, stably transfected (membranes)

motilin receptor = motilin receptor (Homo sapiens, UniProt O43193); assay: Selectivity for the ghrelin receptor versus the motilin receptor; type: binding
Source text: The level of agonist activity and selectivity for representative compounds of the invention are shown below in Table 4.

[3] = binding activity at the human ghrelin receptor, [125I]-ghrelin competition, GHS-R/HEK 293 membranes, read-out: Ki
[4] = binding activity, standard method, TFA salts unless otherwise noted, read-out: Ki
[5] = Table 3C (compounds 18, 334-397), human ghrelin receptor, read-out: Ki
[6] = binding activity at the human ghrelin receptor, [125I]-ghrelin displacement, read-out: Ki
[7] = [125I]-ghrelin competition, GHS-R/HEK 293 membranes, Table 3A, read-out: Binding Activity at the Human Ghrelin Receptor
[8] = Table 3E, human ghrelin receptor, read-out: Ki

Sequence of motilin receptor (O43193 whole entry): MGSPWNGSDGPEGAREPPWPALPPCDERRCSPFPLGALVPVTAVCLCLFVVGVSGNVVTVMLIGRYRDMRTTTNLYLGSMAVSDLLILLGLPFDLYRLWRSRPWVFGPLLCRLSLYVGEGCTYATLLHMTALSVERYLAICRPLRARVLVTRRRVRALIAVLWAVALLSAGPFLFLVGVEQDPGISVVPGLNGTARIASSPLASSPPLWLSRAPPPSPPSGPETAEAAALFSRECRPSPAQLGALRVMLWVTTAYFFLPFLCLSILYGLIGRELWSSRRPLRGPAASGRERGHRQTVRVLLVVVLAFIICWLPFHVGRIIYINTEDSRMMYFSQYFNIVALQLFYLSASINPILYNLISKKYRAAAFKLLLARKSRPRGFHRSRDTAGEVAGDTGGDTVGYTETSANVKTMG
T1 sequence (Q92847 whole entry): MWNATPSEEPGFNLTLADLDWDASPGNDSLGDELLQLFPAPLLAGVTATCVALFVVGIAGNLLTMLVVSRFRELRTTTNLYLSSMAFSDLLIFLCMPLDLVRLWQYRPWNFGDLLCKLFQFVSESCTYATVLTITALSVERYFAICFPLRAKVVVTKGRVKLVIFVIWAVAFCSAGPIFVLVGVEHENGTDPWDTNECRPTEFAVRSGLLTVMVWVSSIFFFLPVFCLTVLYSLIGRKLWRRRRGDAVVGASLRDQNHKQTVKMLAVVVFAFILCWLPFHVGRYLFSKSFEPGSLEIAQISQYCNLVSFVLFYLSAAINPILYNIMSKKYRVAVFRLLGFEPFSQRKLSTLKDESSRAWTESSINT
Sequence of human ghrelin receptor (hGHS-R1a) (Q92847 whole entry): as above

Structure (SMILES)	pEC50 [1]	pKi [2, 3]	pKi [2, 4]	also measured
CC(C)C[C@@H]1NCCOc2ccccc2C=CCNC(=O)[C@H](Cc2ccc(Cl)cc2)NC(=O)C2(CCCC2)NC1=O (stereo in doubt) [compound 153]	7.00 to 9.00	7.00 to 8.00	7.00 to 8.00	
CC1(C)NC(=O)C2(CCCC2)NCCOc2ccccc2C=CCNC(=O)[C@H](Cc2cccc(Cl)c2)NC1=O (stereo in doubt) [compound 334]	7.00 to 9.00		7.00 to 8.00	pKi [2, 5]: 7.00 to 8.00
C[C@@H]1C(=O)N[C@H](Cc2ccccc2)C(=O)NCCCc2ccccc2OCCN2CCCC[C@H]2C(=O)N1C [compound 226]	< 6.00		7.00 to 8.00	
CC(C)C[C@@H]1NCCOc2ccccc2CCCNC(=O)[C@H](Cc2ccccc2)NC(=O)C2(CC2)NC1=O [compound 111]	6.00 to 7.00	6.00 to 7.00	7.00 to 8.00	
CCCC1NCCOc2ccccc2C=CCNC(=O)C(Cc2ccccc2)NC(=O)C(C)N(C)C1=O (centres unmarked) [compound 39]				Selectivity (motilin receptor): 3400/1
CC(C)C[C@@H]1NCCOc2ccccc2C=CCNC(=O)[C@H](Cc2ccc(F)cc2)NC(=O)C2(CCCC2)NC1=O (stereo in doubt) [compound 154]	7.00 to 9.00	7.00 to 8.00	7.00 to 8.00	
CCC(C)C1NCCOc2ccc(C(=O)O)cc2CCCNC(=O)C(Cc2ccccc2)NC(=O)C(C)N(C)C1=O (centres unmarked) [compound 197]				Selectivity (motilin receptor): 100/1
O=C1NC/C=C/c2ccccc2OCCN[C@@H](C2CC2)C(=O)NC2(CCCC2)C(=O)N[C@H]1Cc1cccc(Cl)c1 [compound 346]	7.00 to 9.00		7.00 to 8.00	pKi [2, 6]: 7.00 to 8.00
CCC(C)C1NCCCCCCCCNC(=O)C(Cc2cccc(Cl)c2)NC(=O)C2(CCCC2)NC1=O (centres unmarked) [compound 363]				Selectivity (motilin receptor): 35/1
CC[C@H](C)[C@@H]1NCCOc2ccccc2CCCNC(=O)[C@@H](Cc2ccccc2)NC(=O)[C@@H](C)NC1=O [compound 2]	6.00 to 7.00	6.00 to 7.00	6.00 to 7.00	
CC(C)C[C@@H]1NCCOc2ccccc2/C=C/CNC(=O)C2(CCCC2)NC(=O)C2(CCCC2)NC1=O [compound 168]	< 6.00		6.00 to 7.00	pKi [2, 7]: 6.00 to 7.00
CC[C@H](C)[C@@H]1NCCOc2ccccc2CCCNC(=O)[C@@H](Cc2ccccc2Cl)NC(=O)[C@@H](C)N(C)C1=O [compound 23]	7.00 to 9.00	8.00 to 10.00	8.00 to 10.00	
CC1C(=O)NC(Cc2ccc(F)cc2)C(=O)NCCCc2cc(NS(C)(=O)=O)ccc2OCCNC(C2CC2)C(=O)N1C (centres unmarked) [compound 374]				Selectivity (motilin receptor): 250/1
CCCCC1NCCOc2ccccc2CCCNC(=O)C(Cc2ccccc2)NC(=O)CN(C)C1=O (centres unmarked) [Compound 1]				Selectivity (motilin receptor): 142/1
CCC[C@@H]1NCCOc2ccccc2CCCNC(=O)[C@@H](Cc2ccccc2)NC(=O)CN(CC)C1=O [compound 5]	6.00 to 7.00	6.00 to 7.00		
CCC(C)C1NCCOc2ccccc2C2CC2CNC(=O)C(Cc2cccc(Cl)c2)NC(=O)C2(CCCC2)NC1=O (centres unmarked) [compound 388]				Selectivity (motilin receptor): 400/1
CCC(C)C1NCCOc2ccccc2CCCNC(=O)C(Cc2ccc(O)cc2)NC(=O)C(C)N(C)C1=O (centres unmarked) [compound 445]	7.00 to 9.00		7.00 to 8.00	pKi ([2]; second table titled 3C (compounds 435-449), human ghrelin receptor, read-out: Ki): 7.00 to 8.00
CC(C)[C@@H]1NCCOc2ccccc2CCCNC(=O)[C@@H](Cc2ccccc2)NC(=O)CN(C)C1=O [Compound 3]	6.00 to 7.00	6.00 to 7.00	6.00 to 7.00	
CC(C)C[C@@H]1NCCOc2ccccc2C=CCNC(=O)[C@H](Cc2ccccc2)NC(=O)C2(CCCC2)NC1=O (stereo in doubt) [Compound 8]	7.00 to 9.00	7.00 to 8.00	7.00 to 8.00	
CCC(C)C1NCCOc2ccccc2C=CCNC(=O)C(Cc2ccccc2)NC(=O)C(C)N(C)C1=O (centres unmarked) [compound 40]				Selectivity (motilin receptor): >3300/1
CC[C@H](C)[C@@H]1NCCOc2ccccc2CCCNC(=O)[C@@H](Cc2cccc3ccccc23)NC(=O)[C@@H](C)N(C)C1=O [compound 30]	7.00 to 9.00	8.00 to 10.00	8.00 to 10.00	
CCC(C)C1NCCOc2ccc(F)cc2CCCNC(=O)C(Cc2cccc(Cl)c2)NC(=O)C2(CCCC2)NC1=O (centres unmarked) [compound 382]				Selectivity (motilin receptor): 74/1
CC1C(=O)NC(Cc2ccc(C(F)(F)F)cc2)C(=O)NCCCc2ccccc2OCCNC(C2CC2)C(=O)N1C (centres unmarked) [compound 322]	7.00 to 9.00		8.00 to 10.00	pKi [2, 6]: 8.00 to 10.00

Structure (SMILES)	pEC50 [1]	pKi [2, 3]	pKi [2, 4]	also measured
CC(C)C[C@@H]1NCCOc2ccccc2CCCNC(=O)[C@@H](Cc2ccccc2)NC(=O)C2(CCCC2)NC1=O [compound 97]	6.00 to 7.00	6.00 to 7.00	7.00 to 8.00	
CCC[C@@H]1NCCOc2ccccc2CCCNC(=O)[C@@H](Cc2c[nH]c3ccccc23)NC(=O)CN(C)C1=O [Compound 6]	7.00 to 9.00	6.00 to 7.00	6.00 to 7.00	
CCC(C)C1NCCOc2cccnc2CCCNC(=O)C(Cc2ccccc2)NC(=O)C(C)N(C)C1=O (centres unmarked) [compound 177]				Selectivity (motilin receptor): >100/1
CCC(C)C1NCc2ccccc2CCCCNC(=O)C(Cc2ccccc2)NC(=O)C(C)N(C)C1=O (single isomer, unassigned) [194a]	6.00 to 7.00		6.00 to 7.00	pKi [2, 7]: 6.00 to 7.00
CC(C)[C@@H]1NCCOc2ccccc2CCCNC(=O)[C@H](Cc2ccccc2)NC(=O)C2(CCCC2)NC1=O [Compound 9]	6.00 to 7.00	6.00 to 7.00	6.00 to 7.00	
CC1C(=O)NC(Cc2ccc(Cl)cc2)C(=O)NCCCc2ccccc2OCCNC(C2CC2)C(=O)N1C (centres unmarked) [compound 299]	7.00 to 9.00		8.00 to 10.00	pKi [2, 6]: 8.00 to 10.00
C[C@@H]1NC(=O)C2(CCCC2)NCCOc2ccccc2C=CCNC(=O)[C@H](Cc2cccc(Cl)c2)NC1=O (stereo in doubt) [compound 352]				pKi [2, 5]: 6.00 to 7.00
C[C@@H]1C(=O)N[C@H](Cc2cc(F)c(F)c(F)c2)C(=O)NCCCc2ccccc2OCCN[C@@H](C2CC2)C(=O)N1C [compound 391]				pKi [2, 6]: 8.00 to 10.00
CC[C@H](C)[C@@H]1NCCOc2ccccc2CCCNC(=O)[C@@H](CCc2ccccc2)NC(=O)[C@@H](C)N(C)C1=O [compound 169]				pKi [2, 7]: 7.00 to 8.00
CCC(C)[C@@H]1NCCOc2ccccc2CCCNC(=O)[C@@H](Cc2ccccc2)NC(=O)[C@H]2C[C@H](O)CN2C1=O (some centres unmarked)				pKi [2, 8]: < 5.00
CCC(C)C1NCCOc2ccccc2CCCNC(=O)C(Cc2ccccc2)NC(=O)C2CSCN2C1=O (centres unmarked) [compound 213]				pKi [2, 7]: < 6.00
CCC[C@@H]1NC(=O)[C@@H](C(C)C)NCCOc2ccccc2C=CCNC(=O)[C@H](Cc2ccccc2)NC1=O (stereo in doubt) [compound 13]		6.00 to 7.00		
CC[C@@H](C)[C@H]1NC(=O)[C@@H](C)N(C)C(=O)[C@H]([C@@H](C)CC)NCCOc2ccccc2CCCNC1=O [compound 175]				pKi [2, 7]: 6.00 to 7.00
CCC[C@@H]1NCCOc2ccccc2CCCNC(=O)[C@@H](Cc2ccccc2)NC(=O)[C@@H](C)NC1=O [compound 60]		6.00 to 7.00		
CC[C@H](C)[C@@H]1NCCOc2ccccc2CCCNC(=O)[C@@H](C(C)C)NC(=O)[C@@H](C)N(C)C1=O [compound 174]				pKi [2, 7]: 6.00 to 7.00
CCC(C)[C@@H]1NCCOc2ccccc2CCCNC(=O)[C@@H](Cc2ccccc2)N2CC[C@@H](C2=O)N(C)C1=O (some centres unmarked)				pKi [2, 8]: 6.00 to 7.00
C[C@@H]1C(=O)N[C@H](Cc2cc(F)cc(F)c2)C(=O)NCCCc2ccccc2OCCN[C@@H](C2CC2)C(=O)N1C [compound 317]				pKi [2, 6]: 7.00 to 8.00
CC[C@H](C)[C@@H]1NCCOc2ccccc2CCCNC(=O)[C@@H](Cc2c[nH]cn2)NC(=O)[C@@H](C)N(C)C1=O [compound 305]				pKi [2, 6]: 6.00 to 7.00
CC[C@H](C)[C@@H]1NCCOc2ccccc2C=CCNC(=O)[C@H](Cc2ccccc2)NC(=O)C2(CCCC2)NC1=O (stereo in doubt) [compound 138]		7.00 to 8.00		
O=C1NC2(CCCC2)C(=O)N[C@@H](Cc2ccccc2)C(=O)NC/C=C/c2ccccc2OCCN[C@H]1Cc1cccnc1 [compound 132]		< 6.00		
CCC(C)C1NCCOc2ccccc2CCCNC(=O)C(Cc2ccccc2)N2CCC(C2=O)N(C)C1=O (stereo not drawn) [230 diastereomer]				pKi [2, 8]: 5.00 to 6.00
CC(C)CC1NCCOc2ccccc2CCCNC(=O)C(Cc2ccccc2)NC(=O)C2(CCCC2)NC1=O (centres unmarked) [compound 113]	6.00 to 7.00	6.00 to 7.00	7.00 to 8.00	
C[C@@H]1C(=O)N[C@H](Cc2ccccc2)C(=O)NCCCc2ccccc2OCCNC2(CC2)C(=O)N1C [compound 121]		< 5.00		
